Reference: patent US8889667B2 (Agios Pharmaceuticals, Inc, priority 2010, dated 2014)

Molecular target: PKM2 (Homo sapiens, UniProt P14618)
Assay: PKM2 Assay (activation, LDH-coupled, absorbance at 340 nm)
Format: biochemical
Procedure: • PKM2 stock enzyme solution was diluted in Reaction Buffer • 2 μL of compound was added into each well first, and then 180 μL of the Reaction Mix was added. • Reaction mixture with compound (without ADP) was incubated for 30 minutes at 4° C. • Plates were re-equilibrated to room temperature prior to adding 20 μL ADP to initiate the reaction. • Reaction progress was measured as changes in absorbance at 340 nm wavelength at room temperature (25° C.) Reaction Mix: PKM2 (50 ng/well), ADP (0.7 mM), PEP (0.15 mM), NADH (180 μM), LDH (2 units) in Reaction Buffer Reaction Buffer: 100 mM KCl, 50 mM Tris pH 7.5, 5 mM MgCl2, 1 mM DTT, 0.03% BSA.
Representative compounds of the invention were tested for their ability to activate PKM2 using the above assay. For simplicity, the activation activity of these compounds is represented as an AC50 in Tables 4 and 5 and throughout the application. […] “B” refers to an activator of PKM2 with an EC50 between 100 nM and 500 nM. “C” refers to an activator of PKM2 with an EC50 between 500 nM and 1000 nM. “D” refers to an activator of PKM2 with an EC50 between 1 μM and 20 μM. “E” refers a compound whose activation of PKM2 was not measurable. “N/C” refers to AC50 data not available.

PKM2, sequence (P14618 whole entry): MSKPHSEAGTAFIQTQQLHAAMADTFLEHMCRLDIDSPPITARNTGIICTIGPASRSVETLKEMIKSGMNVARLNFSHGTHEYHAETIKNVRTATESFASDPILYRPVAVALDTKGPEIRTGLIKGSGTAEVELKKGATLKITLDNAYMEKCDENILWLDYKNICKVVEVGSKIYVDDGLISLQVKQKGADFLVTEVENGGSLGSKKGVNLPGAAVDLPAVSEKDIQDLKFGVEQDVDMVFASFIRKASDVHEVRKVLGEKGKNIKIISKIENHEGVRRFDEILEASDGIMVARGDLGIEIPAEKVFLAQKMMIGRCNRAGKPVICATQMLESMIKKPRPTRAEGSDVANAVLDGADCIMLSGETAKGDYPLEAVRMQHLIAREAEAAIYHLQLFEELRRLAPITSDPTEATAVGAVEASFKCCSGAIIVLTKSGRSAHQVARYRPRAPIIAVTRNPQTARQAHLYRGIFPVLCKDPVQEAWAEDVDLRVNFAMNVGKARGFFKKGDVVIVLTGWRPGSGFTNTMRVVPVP

Row | Compound | AC50 (Table 4) [nM] | AC50 (Table 5) [nM]
1 | O=C(c1ccc(NS(=O)(=O)c2cccc3cccnc23)cc1)N1CCN(Cc2cc(F)cc(F)c2)C[C@@H]1c1ccccc1 [Compound 181] | 100 to 500 | –
2 | CC1CN(Cc2cc(F)c(F)cc2F)CC(C)N1C(=O)c1ccc(NS(=O)(=O)c2cccc3cccnc23)cc1 (centres unmarked) [Compound 203, N-(4-(2,6-dimethyl-4-(2,4,5-trifluorobenzyl)piperazine-1-carbonyl)phenyl)quinoline-8-sulfonamide] | < 100 | –
3 | CC(c1cc(F)cc(F)c1)N1CCN(C(=O)c2ccc(NS(=O)(=O)c3cccc4cccnc34)cc2)[C@@H](C)C1 (some centres unmarked) [Compound 170] | 100 to 500 | –
4 | CC(c1ccc(F)cc1)N1CCN(C(=O)c2ccc(NS(=O)(=O)c3cccc4cccnc34)cc2)[C@H](C)C1 (stereo partly drawn) [Compound 133, N-(4-((2R)-4-(1-(4-fluorophenyl)ethyl)-2-methylpiperazine-1-carbonyl)phenyl)quinoline-8-sulfonamide] | < 100 | –
5 | C[C@H]1CN(CC2CCCCO2)CCN1C(=O)c1ccc(NS(=O)(=O)c2cccc3cccnc23)cc1 (stereo partly drawn) [Compound 156, N-(4-((2S)-2-methyl-4-((tetrahydro-2H-pyran-2-yl)methyl)piperazine-1-carbonyl)phenyl)quinoline-8-sulfonamide] | 500 to 1000 | –
6 | O=C(c1ccc(NS(=O)(=O)c2cccc3cccnc23)cc1)N1CC2CCC(C1)N2Cc1cc(F)cc(F)c1 [Compound 218, N-(4-(8-(3,5-difluorobenzyl)-3,8-diazabicyclo[3.2.1]octane-3-carbonyl)phenyl)quinoline-8-sulfonamide] | 100 to 500 | –
7 | CC(c1ccc(Cl)c(F)c1)N1CCN(C(=O)c2ccc(NS(=O)(=O)c3cccc4cccnc34)cc2)[C@@H](C)C1 (some centres unmarked) [Compound 182] | 100 to 500 | –
8 | C[C@@H]1CN(Cc2ccc(F)cc2)CCN1C(=O)c1ccc(NS(=O)(=O)c2cccc3cccnc23)cc1 [Compound 131, (R)—N-(4-(4-(4-fluorobenzyl)-2-methylpiperazine-1-carbonyl)phenyl)quinoline-8-sulfonamide] | < 100 | –
9 | CC(C)OC(=O)N1[C@H](C)CN(C(=O)c2ccc(NS(=O)(=O)c3cccc4cccnc34)cc2)C[C@@H]1C [Compound 106, (2S,6R)-isopropyl 2,6-dimethyl-4-(4-(quinoline-8-sulfonamido)benzoyl)piperazine-1-carboxylate] | 100 to 500 | –
10 | CC(C)(C1CC1)N1CCN(C(=O)c2ccc(NS(=O)(=O)c3cccc4cccnc34)cc2)CC1 [Compound 438, N-(4-(4-(2-cyclopropylpropan-2-yl)piperazine-1-carbonyl)phenyl)quinoline-8-sulfonamide] | – | < 100
11 | CC1CN(CC2CCCCC2)CC(C)N1C(=O)c1ccc(NS(=O)(=O)c2cccc3cccnc23)cc1 (centres unmarked) [Compound 198, N-(4-(4-(cyclohexylmethyl)-2,6-dimethylpiperazine-1-carbonyl)phenyl)quinoline-8-sulfonamide] | 100 to 500 | –
12 | CC(C)OC(=O)N1CCN(C(=O)c2ccc(NS(=O)(=O)c3cccc4cccnc34)cc2)[C@@H](C)C1 [Compound 108, (S)-isopropyl 3-methyl-4-(4-(quinoline-8-sulfonamido)benzoyl)piperazine-1-carboxylate] | < 100 | –
13 | C[C@@H]1CN(C(=O)OC2CCCCC2)CCN1C(=O)c1ccc(NS(=O)(=O)c2cccc3cccnc23)cc1 [Compound 123, (R)-Cyclohexyl 3-methyl-4-(4-(quinoline-8-sulfonamido)benzoyl)piperazine-1-carboxylate] | < 100 | –
14 | C[C@H]1CN(Cc2cc(F)cc(F)c2F)CCN1C(=O)c1ccc(NS(=O)(=O)c2cccc3cccnc23)cc1 [Compound 137, (S)—N-(4-(2-methyl-4-(2,3,5-trifluorobenzyl)piperazine-1-carbonyl)phenyl)quinoline-8-sulfonamide] | < 100 | –
15 | CC(C)(c1ccccc1)N1CCN(C(=O)c2ccc(NS(=O)(=O)c3cccc4cccnc34)cc2)CC1 [Compound 364] | – | < 100
16 | CC[C@H]1CN(Cc2ccc(F)cc2)CCN1C(=O)c1ccc(NS(=O)(=O)c2cccc3cccnc23)cc1 [Compound 134, (S)—N-(4-(2-ethyl-4-(4-fluorobenzyl)piperazine-1-carbonyl)phenyl)quinoline-8-sulfonamide] | 100 to 500 | –
17 | Cc1cnc(C(=O)N2CCN(C(=O)c3ccc(NS(=O)(=O)c4cccc5cccnc45)cc3)CC2)cn1 [Compound 346, N-(4-(4-(5-methylpyrazine-2-carbonyl)piperazine-1-carbonyl)phenyl)quinoline-8-sulfonamide] | – | 500 to 1000
18 | CC(c1ccc(F)c(F)c1F)N1CCN(C(=O)c2ccc(NS(=O)(=O)c3cccc4cccnc34)cc2)[C@@H](C)C1 (some centres unmarked) [Compound 173] | 100 to 500 | –
19 | C[C@@H]1CN(C(=O)O[C@@H]2CCOC2)CCN1C(=O)c1ccc(NS(=O)(=O)c2cccc3cccnc23)cc1 [Compound 126, (R)—((R)-tetrahydrofuran-3-yl)-3-methyl-4-(4-(quinoline-8-sulfonamido)benzoyl)piperazine-1-carboxylate] | 100 to 500 | –
20 | CC(c1cc(F)cc(F)c1F)N1CCN(C(=O)c2ccc(NS(=O)(=O)c3cccc4cccnc34)cc2)CC1 (centres unmarked) [Compound 396, N-(4-(4-(1-(2,3,5-trifluorophenyl)ethyl)piperazine-1-carbonyl)phenyl)quinoline-8-sulfonamide] | – | < 100
21 | O=C(c1ccc(NS(=O)(=O)c2cccc3cccnc23)cc1)N1CCN(C(=O)C2CCCO2)CC1 (centres unmarked) [Compound 443, N-(4-(4-(tetrahydrofuran-2-carbonyl)piperazine-1-carbonyl)phenyl)quinoline-8-sulfonamide] | – | 500 to 1000

More lines, now with the values ahead:

Row | AC50 (Table 4) [nM] | AC50 (Table 5) [nM] | Compound
22 | – | 100 to 500 | O=C(c1ccc(NS(=O)(=O)c2cccc3cccnc23)c(OC(F)(F)F)c1)N1CCN(C(=O)c2ccccc2F)CC1 [Compound 360]
23 | – | 100 to 500 | COc1cc(C(=O)N2CCN(C3(c4ccccc4)CC3)CC2)ccc1NS(=O)(=O)c1cccc2cccnc12 [Compound 352, N-(2-methoxy-4-(4-(1-phenylcyclopropyl)piperazine-1-carbonyl)phenyl)quinoline-8-sulfonamide]
24 | – | 100 to 500 | O=C(c1ccc(NS(=O)(=O)c2cccc3cccnc23)c(OC(F)(F)F)c1)N1CCN(Cc2ncc[nH]2)CC1 [Compound 380, N-(4-(4-((1H-imidazol-2-yl)methyl)piperazine-1-carbonyl)-2-(trifluoromethoxy)phenyl)quinoline-8-sulfonamide]
25 | – | < 100 | COc1cc(C(=O)N2CCN(C3(c4ccc(F)cc4)CC3)CC2)ccc1NS(=O)(=O)c1cccc2cccnc12 [Compound 400, N-(4-(4-(1-(4-fluorophenyl)cyclopropyl)piperazine-1-carbonyl)-2-methoxyphenyl)quinoline-8-sulfonamide]
26 | – | 100 to 500 | CC(C)(C(=O)N1CCN(C(=O)c2ccc(NS(=O)(=O)c3cccc4cccnc34)c(OC(F)(F)F)c2)CC1)c1ccccc1 [Compound 359, N-(4-(4-(2-methyl-2-phenylpropanoyl)piperazine-1-carbonyl)-2-(trifluoromethoxy)phenyl)quinoline-8-sulfonamide]
27 | – | 100 to 500 | O=C(c1ccc(NS(=O)(=O)c2cccc3cccnc23)cn1)N1CCN(CC2CC2)CC1 [Compound 415, N-(6-(4-(cyclopropylmethyl)piperazine-1-carbonyl)pyridin-3-yl)quinoline-8-sulfonamide]
28 | – | 100 to 500 | O=C(c1ccc(NS(=O)(=O)c2cccc3cccnc23)c(OC(F)(F)F)c1)N1CCN(Cc2cnccc2C(F)(F)F)CC1 [Compound 366, N-(2-(trifluoromethoxy)-4-(4-((4-(trifluoromethyl)pyridin-3-yl)methyl)piperazine-1-arbonyl)phenyl)quinoline-8-sulfonamide]
29 | – | 100 to 500 | O=C(c1ccc(NS(=O)(=O)c2cccc3cccnc23)c(OC(F)(F)F)c1)N1CCN(Cc2cncc(F)c2)CC1 [Compound 300]
30 | – | < 100 | O=C(c1ccc(NS(=O)(=O)c2cccc3cccnc23)cc1)N1CCN(C(c2ccccc2)C(F)(F)F)CC1 (centres unmarked) [Compound 358, N-(4-(4-(2,2,2-trifluoro-1-phenylethyl)piperazine-1-carbonyl)phenyl)quinoline-8-sulfonamide]
31 | – | < 100 | O=C(c1ccc(NS(=O)(=O)c2cccc3cccnc23)cc1)N1CCN(C(=O)c2nccs2)CC1 [Compound 371, N-(4-(4-(thiazole-2-carbonyl)piperazine-1-carbonyl)phenyl)quinoline-8-sulfonamide]
32 | – | < 100 | O=C(c1ccc(NS(=O)(=O)c2cccc3cccnc23)cc1)N1CCN(C(=O)c2ncc[nH]2)CC1 [Compound 354, N-(4-(4-(1H-imidazole-2-carbonyl)piperazine-1-carbonyl)phenyl)quinoline-8-sulfonamide]
33 | – | < 100 | O=C(c1ccc(NS(=O)(=O)c2cccc3cccnc23)cc1F)N1CCN(Cc2cc(F)c(F)c(F)c2)CC1 [Compound 423, N-(3-fluoro-4-(4-(3,4,5-trifluorobenzyl)piperazine-1-carbonyl)phenyl)quinoline-8-sulfonamide]
34 | – | 500 to 1000 | O=C(Oc1ccccn1)N1CCN(C(=O)c2ccc(NS(=O)(=O)c3cccc4cccnc34)c(OC(F)(F)F)c2)CC1 [Compound 344, Pyridin-2-yl4-(4-(quinoline-8-sulfonamido)-3-(trifluoromethoxy)benzoyl)piperazine-1-carboxylate]
35 | – | 500 to 1000 | O=C(c1ccc(NS(=O)(=O)c2cccc3cccnc23)c(OC(F)(F)F)c1)N1CCN(CC2CCCC2)CC1 [Compound 336, N-(4-(4-(cyclopentylmethyl)piperazine-1-carbonyl)-2-(trifluoromethoxy)phenyl)quinoline-8-sulfonamide]
